Data reported in patent US7368457B2, “Bridged N-arylsulfonylpiperidines as gamma-secretase inhibitors” (Schering Corporation, priority 2003, dated 2008).

target: T1, gamma secretase (Homo sapiens, UniProt P49768); experiment: Gamma secretase activity in membranes of 293 cells expressing C99 (SPC99-Lon), Aβ 40 / Aβ 42 ECL immunoassay; assay type: biochemical; conditions: not given
T1 construct: endogenous in cells; host or cells: Membranes of 293 T-REx cells, clone pTRE.15; The enzyme is endogenous; only the substrate SPC99-Lon is transfected
Excerpt: Reagents. Antibodies WO2, G2-10, and G2-11 were obtained from Dr. Konrad Beyreuther (University of Heidelberg, Heidelberg, Germany). WO2 recognizes residues 5-8 of Aβ peptide, while G2-10 and G2-11 recognize the specific C-terminal structure of Aβ 40 and Aβ 42, respectively. Biotin-4G8 was purchased from Senetec (St. Louis, Mo.). All tissue culture reagents used in this work were from Life Technologies, Inc., unless otherwise specified. Pepstatin A was purchased from Roche Molecular Biochemicals; DFK167 was from Enzyme Systems Products (Livermore, Calif.).
cDNA Constructs, Tissue Culture, and Cell Line Construction. […] Upon insertion into the membrane, the 17 amino acid signal peptide is processed, leaving an additional leucine at the N-terminus of Aβ SPC99-Ion was cloned into the pcDNA4/TO vector (Invitrogen) and transfected into 293 cells stably transfected with pcDNA6/TR, which is provided in the T-REx system (Invitrogen). The transfected cells were selected in Dulbecco's modified Eagle's media (DMEM) supplemented with 10% fetal bovine serum, 100 units/mL penicillin, 100 µg/mL streptomycin, 250 µg/mL zeocin, and 5 µg/mL blasticidin (Invitrogen). Colonies were screened for Aβ production by inducing C99 expression with […] tetracycline for 16-20 h and analyzing conditioned media with a sandwich immunoassay (see below). One of the clones, designated as pTRE.15, was used in these studies.
Membrane Preparation. C99 expression in cells was induced with […] tetracycline for 20 h. The cells were pretreated with […] 12-myristate 13-acetate (PMA) and […] brefeldin A (BFA) for 5-6 h at 37 C before harvesting. The cells were washed 3 times with cold phosphate-buffered saline (PBS) and harvested in buffer A containing 20 mM Hepes (pH 7.5), 250 mM sucrose, 50 mM KCl, 2 mM EDTA, 2 mM EGTA, and Complete protease inhibitor tablets (Roche Molecular Biochemicals). The cell pellets were flash-frozen in liquid nitrogen and stored at −70 C before use.
To make membranes, the cells were resuspended in buffer A and lysed in a nitrogen bomb at 600 psi. The cell lysate was centrifuged at 1500 g for 10 min to remove nuclei and large cell debris. The supernatant was centrifuged at 100000 g for 1 h. The membrane pellet was resuspended in buffer A plus 0.5 M NaCl, and the membranes were collected by centrifugation at 200000 g for 1 h. The salt-washed membrane pellet was washed again in buffer A and centrifuged at 100000 g for 1 h. The final membrane pellet was resuspended in a small volume of buffer A using a Teflon-glass homogenizer. The protein concentration was determined, and membrane aliquots were flash-frozen in liquid nitrogen and stored at −70° C.
γ-Secretase Reaction and Aβ Analysis. To measure γ-secretase activity, membranes were incubated at 37° C. for 1 h in 50 μL of buffer containing 20 mM Hepes (pH 7.0) and 2 mM EDTA. At the end of the incubation, Aβ 40 and Aβ 42 were measured using an electrochemiluminescence (ECL)-based immunoassay. Aβ 40 was identified with antibody pairs TAG-G2-10 and biotin-WO2, while Aβ 42 was identified with TAG-G2-11 and biotin-4G8. The ECL signal was measured using an ECL-M8 instrument (IGEN International, Inc.) according to the manufacturer's instructions. The data presented were the means of the duplicate or triplicate measurements in each experiment.

IC50 [nM] | SMILES
1000 to 10000 | O=C(O[C@@H]1CCC2CCCC1N2S(=O)(=O)c1ccc(Cl)cc1)N1CCC(N2CCCCC2)CC1 (stereo partly shown) [Example 15]
~16 | O=C(O[C@H]1CCC2CCCC1N2S(=O)(=O)c1ccc(Cl)cc1)N1CCC(N2CCCCC2)CC1 (stereo partly shown) [Example 16]

same assay, conditions: gamma secretase membrane assay; ranges given as 'about 0.1 to about 1.0 μM' and 'about 1 to about 10 μM'; read-out: IC50

SMILES | IC50 [nM]
O=C(O[C@H]1CCC2CCCC1N2S(=O)(=O)c1ccc(Cl)cc1)N1CCN(CCO)CC1 (stereo partly shown) [Example 14] | 100 to 1000
O=C(O[C@H]1CCC2CCCC1N2S(=O)(=O)c1ccc(Cl)cc1)N1CCN(CC2CC2)CC1 (stereo partly shown) [Example 17] | 100 to 1000
CC(C)N1CCN(C(=O)O[C@H]2CCC3CCCC2N3S(=O)(=O)c2ccc(Cl)cc2)CC1 (stereo partly shown) [Example 21] | 100 to 1000
O=C(O[C@H]1CCC2CCCC1N2S(=O)(=O)c1ccc(Cl)cc1)N1CCN(CCCO)CC1 (stereo partly shown) [Example 22] | 100 to 1000
O=C(O[C@H]1CCC2CCCC1N2S(=O)(=O)c1ccc(Cl)cc1)N1CCN(c2ccccc2)CC1 (stereo partly shown) [Example 23] | 100 to 1000
O=C(O[C@H]1CCC2CCCC1N2S(=O)(=O)c1ccc(Cl)cc1)N1CCC(O)(c2ccc(Cl)cc2)CC1 (stereo partly shown) [Example 24] | 100 to 1000
CCN(CC)C(=O)C1CCCN(C(=O)O[C@H]2CCC3CCCC2N3S(=O)(=O)c2ccc(Cl)cc2)C1 (stereo partly shown) [Example 25] | 100 to 1000
CN1CCN(C(=O)O[C@H]2CCC3CCCC2N3S(=O)(=O)c2ccc(Cl)cc2)CC1 (stereo partly shown) [Example 26] | 100 to 1000
COC(=O)C1CCN(C(=O)O[C@H]2CCC3CCCC2N3S(=O)(=O)c2ccc(Cl)cc2)CC1 (stereo partly shown) [Example 27] | 100 to 1000
O=C(O[C@H]1CCC2CCCC1N2S(=O)(=O)c1ccc(Cl)cc1)N1CCC[C@H]1CO (stereo partly shown) [Example 28] | 100 to 1000
CCN(Cc1ccncc1)C(=O)O[C@H]1CCC2CCCC1N2S(=O)(=O)c1ccc(Cl)cc1 (stereo partly shown) [Example 29] | 100 to 1000
O=C(O[C@@H]1C=CC2CCCC1N2S(=O)(=O)c1ccc(Cl)cc1)N1CCC(N2CCCCC2)CC1 (stereo partly shown) [Example 34] | 100 to 1000
O=C(OC1CC2CCC1N2S(=O)(=O)c1ccc(Cl)cc1)N1CCC(N2CCCCC2)CC1 (stereo not shown) [Example 35] | 1000 to 10000
O=C(OC1C[C@H]2CCC1N2S(=O)(=O)c1ccc(Cl)cc1)N1CCN(C2CCCCC2)CC1 (stereo partly shown) [Example 36] | 1000 to 10000
CCN1CCN(C(=O)OC2C[C@H]3CCC2N3S(=O)(=O)c2ccc(Cl)cc2)CC1 (stereo partly shown) [Example 37] | 1000 to 10000
CC(C)N1CCN(C(=O)OC2C[C@H]3CCC2N3S(=O)(=O)c2ccc(Cl)cc2)CC1 (stereo partly shown) [Example 40] | 1000 to 10000
O=C(O[C@H]1CCC2CCC1N2S(=O)(=O)c1ccc(Cl)cc1)N1CCC(N2CCCCC2)CC1 (stereo partly shown) [Example 43] | 100 to 1000
